“Also recorded” adds a separate entry of the source. Values belong to the compound of their own block, whether it stands above or below them. Peptide text beside a SMILES is read from it.
Legend:
[1] = approximate class bounds given as e.g.; cited from earlier work
[2] = color stability of red 40 in vitamin fortified beverage exposed to light (Examples 39-40); format: physicochemical; conditions: south facing window, exposure to light
Text: The mixture is returned to the original container and sealed. The sealed bottle is place in a south facing window for 5-6 weeks or until color changes are noted. Excess beverage is stored refrigerated in glass.

[3] = stabilization of citral in citric acid solution with added uncomplexed cyclodextrin (Example 20); format: physicochemical; conditions: 0.1 or 0.2 wt % cyclodextrin, 40 or 90 degrees F., 18-48 hours
Experimental: Citral (natural citral, SAP No. 921565, Lot No. 10000223137, available from Citrus & Allied) was cut in ethanol and diluted in citric acid to obtain a desired flavor level (e.g., 3 mL (1% citral in EtOH) per 2 L 0.6% citric acid; designated as “control” or “control freshly made” in Table 2). […] The raw area counts of various forms of citral or character-impact citrus flavor compounds (i.e., neral, geranial, and citral total, the sum of neral and geranial), and a variety of other compounds, including common citrus flavor off-note chemicals (e.g., carveol, p-cymene or p-cymene-8-ol, p,a-dimethyl styrene, mentha-1,5-dien-8-ol 1, and mentha-a,5-dien-8-ol 2) and chlorocyclohexane internal standard (designated as “CCH int std” in Table 2) were measured for each permutation of the experiment, as shown in Table 2. As used herein, the term “raw area counts” is used to refer to the area under the curve of a corresponding portion of a gas chromatogram when the samples are analyzed using a gas chromatography-mass spectrometry analysis, namely, a PEGASUS II Time-of-flight mass spectrometer (TOF-MS; available from LECO Corp., St. Joseph, Mich.). The chlorocyclohexane internal standard was included at 10 ppm per beverage to attempt to normalize the raw area counts of the other compounds of interest.

[4] = stabilization of citral to sunlight, off-notes by SPME GC/TOF-MS (Example 40A); format: physicochemical
Text: The encapsulated citral products of Example 19 were studied by exposure to summer sun for 7 days as in the above example, but with the goal of monitoring thermal and photo oxidation products using two different concentrations of cyclodextrins. […] The citral complexes were studied at two different concentrations and were designed to deliver a constant citral level when used at 0.1 wt % or 0.2 wt % in acidic beverage base consisting of 10% sucrose and 0.5% citric acid. A 0.1 wt % citral in ethanol was used as a control. 500 ml of each sample was prepared and divided into six (6) four (4) oz samples with no allowed headspace and sealed. Analysis was preformed using SPME and a LECO Pegasus III GC/TOF-MS as previously reported; samples were analyzed in triplicate using a “Latin Square” sampling protocol.

Compound: COC(=O)[C@H](Cc1ccccc1)NC(=O)[C@@H](N)CC(=O)O [aspartame] (H-Asp-Phe-OMe)
log(P) value (class of guest) [1]: less than about 1 but greater than zero

Compound: CSC [dimethyl sulfide]
log(P) value (class of guest) [1]: less than about 1 but greater than zero

Compound: CCc1occc(=O)c1O [ethyl maltol]
log(P) value (class of guest) [1]: less than about 1 but greater than zero

Compound: CC1=C(O)C(=O)C(C)O1 (centres unmarked) [furaneol, 4-hydroxy-2,5-dimethyl-3(2H) furanone]
log(P) value (class of guest) [1]: less than about 1 but greater than zero

color stability (red 40) [2]: degrades upon exposure to light
Compound: COc1cc(S(=O)(=O)[O-])c(C)cc1N=Nc1c(O)ccc2cc(S(=O)(=O)[O-])ccc12.[Na+].[Na+] [red 40 color]

Compound: OC[C@H]1O[C@@H]2O[C@H]3[C@H](O)[C@@H](O)[C@@H](O[C@H]4[C@H](O)[C@@H](O)[C@@H](O[C@H]5[C@H](O)[C@@H](O)[C@@H](O[C@H]6[C@H](O)[C@@H](O)[C@@H](O[C@H]7[C@H](O)[C@@H](O)[C@@H](O[C@H]1[C@H](O)[C@H]2O)O[C@@H]7CO)O[C@@H]6CO)O[C@@H]5CO)O[C@@H]4CO)O[C@@H]3CO [α-cyclodextrin]
amount of off-notes formed vs control [3]: off-note formation is inhibited

Compound: OC[C@H]1O[C@@H]2O[C@H]3[C@H](O)[C@@H](O)[C@@H](O[C@H]4[C@H](O)[C@@H](O)[C@@H](O[C@H]5[C@H](O)[C@@H](O)[C@@H](O[C@H]6[C@H](O)[C@@H](O)[C@@H](O[C@H]7[C@H](O)[C@@H](O)[C@@H](O[C@H]8[C@H](O)[C@@H](O)[C@@H](O[C@H]1[C@H](O)[C@H]2O)O[C@@H]8CO)O[C@@H]7CO)O[C@@H]6CO)O[C@@H]5CO)O[C@@H]4CO)O[C@@H]3CO [β-cyclodextrin]
amount of citral in the solution vs control [3]: increased the amount of citral in the solution | amount of off-notes formed vs control [3]: off-note formation is inhibited; also recorded: decreased the amount of off-notes formed

color stability (red 40) [2]: superior color stability | color stability (red 40) ([2]; listed as hydroxyl propyl β-cyclodextrin): best
Compound: hydroxypropyl-β-cyclodextrin
preventing flavor offnotes, compared with β-cyclodextrin [4]: less effective than β-cyclodextrin in preventing flavor offnotes

— US20100160623A1, “CYCLODEXTRIN INCLUSION COMPLEXES AND METHODS OF PREPARING SAME” (CARGILL, INCORPORATED, priority 2006, published 2010)
